Key:
[1] = target: T1, human GPR120 (Homo sapiens, UniProt Q5NUL3); assay: Human GPR120 β-Arrestin Recruitment Assay; type: cell-based; conditions: CHO-K1 cells co-expressing ProLink-tagged human GPR120 and β-Arrestin 2/β-gal fusion; PathHunter; 90 minutes at 37° C.; read-out: β-Arr pEC50 (converted)
T1 construct: host or cells: CHO-K1
From the text: This in vitro assay tests compounds' ability to activate intracellular signaling via β-Arrestin recruitment to heterologously expressed human GPR120. This functional cellular assay utilizes enzyme fragment complementation with β-galactosidase (β-gal) as a functional reporter (DiscoveRx PathHunter® β-Arrestin assay platform). The human GPR120 receptor (GenBank accession Number NM_181745) was fused in frame with the small enzyme fragment ProLink™ and co-expressed in CHO-K1 cells with a fusion protein of β-Arrestin 2 and the larger, N-terminal deletion mutant of β-gal. Activation by a GPR120 agonist stimulates binding of β-arrestin to the ProLink-tagged GPCR and forces complementation of the two enzyme fragments, resulting in the formation of an active β-gal enzyme. This interaction leads to an increase in enzyme activity that can be measured using chemiluminescent PathHunter® Detection Reagents.
One day prior to the assay, cells were seeded in a total volume of 20 μl of growth medium into white walled 384-well microplates and incubated at 37° C./5% CO2 overnight. On the day of the assay, growth medium was removed and 20 μl assay buffer (HBSS+10 mM HEPES+0.1% heat-inactivated BSA) were added to each well.
Test compounds were dissolved in 100% DMSO to a concentration of 10 mM to provide stock solutions. Serial dilutions were performed from stock solutions into assay buffer to obtain intermediate concentrations of 5-fold higher than the concentrations to be tested. 5 μl of the 5x compound solutions were added to the cells and the assay plates were incubated alt 37° C. for 90 minutes, The final concentration of compounds tested in the assay ranged from 1.5 nM to 100 μM. Following incubation, 12.5 μl of PathHunter® detection reagent were added to each well, and plates were incubated at room temperature for 60 minutes. Chemiluminescence was read using an EnVision plate reader (PerkinElmer), raw data were expressed as relative light units (RLU).
(§1) To determine agonist potencies (EC50 values), non-linear least-squares curve fits of the raw data (RLU) were performed in the GraphPad Prism software package, using the 4-parameter model with variable Hill Slope:
Reported below in Table 1 are pEC50 values (pEC50=−log(EC50) from curve fit) for compounds of Formula I in this assay, β-Arr pEC50.
T1 sequence (Q5NUL3 1-377 isoform Q5NUL3-1): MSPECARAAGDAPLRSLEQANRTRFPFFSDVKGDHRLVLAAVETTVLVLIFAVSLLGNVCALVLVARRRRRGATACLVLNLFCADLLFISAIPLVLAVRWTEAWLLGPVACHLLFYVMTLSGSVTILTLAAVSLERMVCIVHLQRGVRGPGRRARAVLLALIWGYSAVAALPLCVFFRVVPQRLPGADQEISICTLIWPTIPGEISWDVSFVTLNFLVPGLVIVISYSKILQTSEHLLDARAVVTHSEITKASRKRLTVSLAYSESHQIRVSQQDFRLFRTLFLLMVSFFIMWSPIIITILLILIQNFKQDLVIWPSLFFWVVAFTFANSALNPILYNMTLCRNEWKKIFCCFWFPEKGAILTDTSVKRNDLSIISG
T1 sequence (P32121 whole entry partner, the tested form may be a part): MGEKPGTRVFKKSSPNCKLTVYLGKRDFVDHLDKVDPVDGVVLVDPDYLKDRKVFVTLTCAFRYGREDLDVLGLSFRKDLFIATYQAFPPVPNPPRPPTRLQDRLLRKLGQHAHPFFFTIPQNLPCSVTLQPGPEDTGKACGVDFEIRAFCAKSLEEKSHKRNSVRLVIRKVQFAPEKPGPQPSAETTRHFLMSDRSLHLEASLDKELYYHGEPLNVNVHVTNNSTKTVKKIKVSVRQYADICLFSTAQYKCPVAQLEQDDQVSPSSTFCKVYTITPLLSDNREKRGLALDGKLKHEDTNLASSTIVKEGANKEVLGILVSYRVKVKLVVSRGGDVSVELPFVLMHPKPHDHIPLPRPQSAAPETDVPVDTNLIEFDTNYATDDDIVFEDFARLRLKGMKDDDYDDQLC

[2] = target: T2, human GPR120 (Homo sapiens, UniProt Q5NUL3); assay: Human GPR120 Calcium-Release Assay; type: cell-based; conditions: short variant of human GPR120 in CHO-K1 cells coexpressing Gα16 and mitochondrial apoaequorin; luminescence; read-out: Ca2+ pEC50 (converted)
T2 construct: expressed in transfected cells; host or cells: CHO-K1 coexpressing Gα16 and mitochondrial apoaequorin
T2 sequence (Q5NUL3 1-361): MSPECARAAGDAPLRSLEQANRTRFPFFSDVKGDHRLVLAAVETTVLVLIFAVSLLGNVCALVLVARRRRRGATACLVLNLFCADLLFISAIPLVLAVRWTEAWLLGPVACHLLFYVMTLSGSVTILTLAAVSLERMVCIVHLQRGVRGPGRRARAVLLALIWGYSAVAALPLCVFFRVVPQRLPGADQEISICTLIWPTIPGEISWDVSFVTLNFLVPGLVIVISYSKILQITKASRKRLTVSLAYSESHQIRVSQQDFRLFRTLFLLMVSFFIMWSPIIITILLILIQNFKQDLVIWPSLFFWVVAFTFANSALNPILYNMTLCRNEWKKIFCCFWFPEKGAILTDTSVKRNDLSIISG
From the text: This in vitro assay tests compounds' ability to activate heterologously expressed human GPR120 via G-protein coupling leading to generation of inositol 1,4,5-triphosphate and mobilization of intracellular calcium. This functional cellular assay is based on the luminescence of mitochondrial aequorin following intracellular Ca^2+ release. Aequorin is a photoprotein isolated from the jellyfish Aequorea victoria. The active protein is formed in the presence of molecular oxygen from apoaequorin and its cofactor coelenterazine. Binding of Ca^2+ to the active protein induces a conformational change, resulting in oxidation of coelenterazine and subsequent blue luminescence.
The short variant of the human GPR120 receptor (GenBank accession Number AAI01176) was stably expressed in a CHO-K1 cell line coexpressing Gα16 and mitochondrial apoaequorin.
Cells were grown to mid-log phase in culture media without antibiotics, were detached with PBS/EDTA, centrifuged and resuspended in assay buffer (DMEM-F12 medium with 15 mM HEPES pH 7.0 and 0.1% protease free BSA) at a concentration of 10^6 cells/mL. Cells were incubated at room temperature for at least 4 hours with 5 μM coelenterazine h.
Test compounds were dissolved in 100% DMSO to a concentration of 20 mM to provide stock solutions. Serial dilutions were performed from stock solutions in 100% DMSO to obtain intermediate concentrations 200-fold higher than the concentrations to be tested. Each sample was diluted 100-fold into assay buffer. 50 μl of these compound solutions were dispensed into each well of 96-well assay plates. The final concentration of compounds tested in the assay ranged from 5 nM to 100 μM. α-Linolenic acid was used as a reference compound. Each test was performed in duplicate.
To start the assay, 50 μl of cell suspension were added to each well of the assay plate. The resulting luminescence was recorded using a Hamamatsu Functional Drug Screening System 6000 (FDSS 6000), and raw data were expressed as relative light units (RLU).
as §1
Reported below in Table 1 are pEC50 values (pEC50=−log(EC50) from curve fit) for representative compounds of Formula I in this assay, Ca2+pEC50.

EC50 [1] [µM]	EC50 [2] [µM]	SMILES
> 10	–	O=S1(=O)c2ccc(Oc3cccnc3)cc2CN1c1cccnc1 [Compound 31]
5.01	–	O=S1(=O)c2ccc(OCc3ccccc3)cc2CN1c1ccccc1 [Compound 38]
> 31.6	–	O=S1(=O)c2ccc(Oc3ccccn3)cc2CN1c1ccccc1 [Compound 27]
12.6	20	O=S1(=O)c2ccc(OC3CC(F)(F)C3)cc2CN1Cc1ccccc1 [Compound 14]
2.51	> 100	O=S1(=O)c2ccc(OC3CCC3)cc2CN1c1ccccc1 [Compound 30]
15.8	10	O=S1(=O)c2ccc(Oc3cccnc3)cc2CN1c1ccccn1 [Compound 34]
12.6	–	O=S1(=O)c2ccc(Oc3cccnc3)cc2CN1c1ccncc1 [Compound 35]
0.501	1	O=S1(=O)c2ccc(Oc3ccccc3)cc2CN1Cc1ccccc1 [Compound 2]
3.16	10	O=S1(=O)c2ccc(Oc3cccnc3)cc2CN1Cc1ccncc1 [Compound 20]
> 31.6	–	O=S1(=O)c2ccc(OCc3cccnc3)cc2CN1c1ccccc1 [Compound 40]
6.31	–	O=S1(=O)c2ccc(Oc3cccnc3)cc2CN1Cc1ccccc1Cl [Compound 8]
> 31.6	–	CN1Cc2cc(Oc3cccnc3)ccc2S1(=O)=O [Compound 12]
5.01	–	O=S1(=O)c2ccc(Oc3cccnc3)cc2CN1c1cccc(OC(F)(F)F)c1 [Compound 33]
> 10	–	O=C1c2ccc(Oc3cccnc3)cc2CN1c1ccccc1 [Compound 45]
3.98	2	O=S1(=O)c2ccc(Oc3cccnc3)cc2CN1Cc1c(F)cccc1Cl [Compound 7]
> 31.6	–	O=C(O)c1cccc(CN2Cc3cc(Oc4cccnc4)ccc3S2(=O)=O)c1 [Compound 22]
> 10	–	O=S1(=O)c2ccc(Oc3ccc(Cl)cc3)cc2CN1c1ccccc1 [Compound 37]
> 31.6	–	O=S1(=O)c2ccc(Oc3ccncc3)cc2CN1c1ccccc1 [Compound 26]
> 10	–	O=C(O)c1cccc(N2Cc3cc(Oc4cccnc4)ccc3S2(=O)=O)c1 [Compound 36]
> 31.6	–	O=S1(=O)c2ccc(Oc3cccnc3)cc2CN1c1cc(OC(F)(F)F)ccc1Cl [Compound 41]
1.58	–	O=S1(=O)c2ccc(Oc3ccc(Cl)c(Cl)c3)cc2CN1Cc1ccccc1 [Compound 5]

EC50 [1] [µM]	EC50 [2] [µM]	SMILES
0.251	7.94	O=S1(=O)c2ccc(Oc3ccc(Cl)cc3)cc2CN1Cc1ccccc1 [Compound 4]
1.58	–	O=S1(=O)c2ccc(Oc3cccnc3)cc2CN1c1cccc(Cl)c1 [Compound 32]
> 10	–	O=S1(=O)c2ccc(Oc3cccnc3)cc2CN1Cc1c(Cl)cccc1Cl [Compound 6]
1	1.26	O=S1(=O)c2ccc(Oc3ccccc3)cc2CN1c1ccccc1 [Compound 25]
> 10	–	O=S1(=O)c2ccc(Oc3cccnc3)cc2CN1CCc1ccccc1 [Compound 17]
2	–	Cc1cc(Oc2cccnc2)cc2c1S(=O)(=O)N(Cc1ccccc1)C2 [Compound 23]
> 10	–	CC(c1ccccc1)N1Cc2cc(Oc3cccnc3)ccc2S1(=O)=O (centres unmarked) [Compound 13]
7.94	3.98	O=S1(=O)c2ccc(Oc3cccnc3)cc2CN1Cc1ccc(Cl)cc1Cl [Compound 11]
0.501	0.794	O=S1(=O)c2ccc(OC3CCC3)cc2CN1Cc1ccccc1 [Compound 15]
0.794	39.8	O=S1(=O)c2ccc(Oc3cccc(Cl)c3)cc2CN1c1ccccc1 [Compound 28]
> 31.6	> 100	O=S1(=O)c2ccc(Oc3ccc(Cl)c(Cl)c3)cc2CN1c1ccccc1 [Compound 29]
12.6	–	O=S1(=O)c2ccc(Oc3cccnc3)cc2CN1C1CCC1 [Compound 44]
7.94	15.8	O=S1(=O)c2ccc(Oc3cccnc3)cc2CN1Cc1cccnc1 [Compound 19]
3.16	–	O=S1(=O)c2ccc(Oc3cccnc3)cc2CN1Cc1cc(OC(F)(F)F)ccc1Cl [Compound 16]
1.26	1.58	O=S1(=O)c2ccc(Oc3cccnc3)cc2CN1Cc1cccc(Cl)c1 [Compound 9]
6.31	10	O=C1c2ccc(Oc3cccnc3)cc2CN1Cc1ccccc1 [Compound 46]
7.94	2.51	O=S1(=O)c2ccc(Oc3cccnc3)cc2CN1c1ccccc1 [Compound 24]
3.16	2.51	O=S1(=O)c2ccc(Oc3cccnc3)cc2CN1Cc1ccc(Cl)cc1 [Compound 10]
> 31.6	–	O=C(O)c1ccc(CN2Cc3cc(Oc4cccnc4)ccc3S2(=O)=O)cc1 [Compound 21]
0.158	3.98	O=S1(=O)c2ccc(Oc3cccc(Cl)c3)cc2CN1Cc1ccccc1 [Compound 3]

From patent publication US10865201B2, “Bicyclic compounds useful as GPR120 modulators” (Valo Health, Inc., priority 2016, dated 2020)
